# According to patent US10662204B2 (PFIZER INC., priority 2018, dated 2020):
# Legend:
# KRAS G12C = KRAS G12C (Homo sapiens, UniProt P01116, G12C); assay: Cell Activity Assay: accumulation of GDP-bound KRAS G12C in MIAPaCa-2 cells (Raf-1 RBD capture, MSD readout); format: cell-based; design: endogenous in cells; host or cells: MIAPaCa-2; conditions: 6 hours, assay limit is 30.00
# Method in brief: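 MIAPaCa-2 cells exposed 6 h at 37 °C to 3-fold compound dilutions (0.3% DMSO final), then lysed. Active GTP-KRAS captured on Raf-1 RBD-coated plates, detected with anti-pan-Ras and SULFO-TAG secondary by MSD electrochemiluminescence. Signal normalized to DMSO and maximum inhibition; IC50 from 4-parameter fit.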
# [1] = molecular target: T1, GDP-loaded KRAS (1-169) G12C, C51S, C80L, C118S (Homo sapiens, UniProt P01116, C118S/C51S/C80L/G12C); assay: Mass Spectrometry Reactivity Assay (MSRA): covalent adduct of compound and KRAS G12C, Percent Modification; format: binding; conditions: for MSRA (% modification) 10 μM 0.50 hr / MSRA (% modification) 10 μM 0.25 hr: 10 μM compound; for MSRA (% modification) 5.0 μM 0.25 hr: 5.0 μM compound
# T1 construct: GDP-loaded KRAS (1-169) G12C, C51S, C80L, C118S
# Method in brief: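 GDP-loaded KRAS(1-169) G12C/C51S/C80L/C118S at 5 μM in 25 mM Hepes pH 7.5, 200 mM NaCl, 5% glycerol incubated at RT with compound (typically 5 or 10 μM final, 1% DMSO). Quenched in formic acid at 1-60 min; intact-protein LC-TOF MS gives % modification = modified/(modified+unmodified).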
IC50 (KRAS G12C) [µM],MSRA (% modification) 10 μM 0.50 hr [1] [%],MSRA (% modification) 5.0 μM 0.25 hr [1] [%],MSRA (% modification) 10 μM 0.25 hr [1] [%],Compound
27.8,20,,,C=CC(=O)N1CCN(c2ncnc3c(Oc4c(C)ccc5[nH]ncc45)cc(C#N)cc23)CC1 [Example 14C]
1.01,65,,,"C=CC(=O)N1CCN(c2nc(N3CC(N(C)C)C3)nc3c(Oc4c(Cl)c(C)cc5[nH]ncc45)cccc23)CC1 [Example 14E, 1-(4-{8-[(5-chloro-6-methyl-1H-indazol-4-yl)oxy]-2-[3-(dimethylamino)azetidin-1-yl]quinazolin-4-yl}piperazin-1-yl)prop-2-en-1-one]"
29,12,,,"C=CC(=O)N1CCN(c2nc(N(C)CCC(=O)NC)nc3c(Oc4c(C)ccc5[nH]ncc45)cccc23)CC1 [Example 14F, N^3-{4-(4-acryloylpiperazin-1-yl)-8-[(5-methyl-1H-indazol-4-yl)oxy]quinazolin-2-yl}-N,N^3-dimethyl-β-alaninamide]"
0.401,,78,79,"C=CC(=O)N1CCN(c2nc(OCC3CCC(=O)N3C)nc3c(Oc4c(Cl)c(F)cc5[nH]ncc45)nc(Cl)cc23)CC1 (stereo not drawn) [Example 14G, 5-[({4-(4-acryloylpiperazin-1-yl)-6-chloro-8-[(5-chloro-6-fluoro-1H-indazol-4-yl)oxy]pyrido[3,4-d]pyrimidin-2-yl}oxy)methyl]-1-methylpyrrolidin-2-one]"
0.082,,52,81,"C=CC(=O)N1CCN(c2nc(OC[C@]3(F)CCN(C)C3)nc3c(Oc4c(Cl)c(F)cc5[nH]ncc45)nccc23)CC1 [Example 14H, 1-[4-(8-[(5-chloro-6-fluoro-1H-indazol-4-yl)oxy]-2-{[(3S)-3-fluoro-1-methylpyrrolidin-3-yl]methoxy}pyrido[3,4-d]pyrimidin-4-yl)piperazin-1-yl]prop-2-en-1-one]"
0.366,,14,,"C=CC(=O)N1CCN(c2nc(Oc3cccnc3C)nc3c(Oc4c(Cl)c(F)cc5[nH]ncc45)nccc23)CC1 [Example 14I, 1-(4-{8-[(5-chloro-6-fluoro-1H-indazol-4-yl)oxy]-2-[(2-methyl-pyridin-3-yl)oxy]pyrido [3,4-d]pyrimidin-4-yl}piperazin-1-yl)prop-2-en-1-one]"
0.468,67,,,"C=CC(=O)N1CCN(c2ncnc3c(Oc4c(Cl)c(C)cc5[nH]ncc45)nc(Cl)cc23)CC1 [Example 15A, 1-(4-{6-chloro-8-[(5-chloro-6-methyl-1H-indazol-4-yl)oxy]pyrido[3,4-d]pyrimidin-4-yl}piperazin-1-yl)prop-2-en-1-one]"
0.51,74,56,59,"C=CC(=O)N1CCN(c2nc(OCCN(C)C)nc3c(Oc4c(Cl)c(C)cc5[nH]ncc45)cccc23)CC1 [Example 15E, 1-(4-{8-[(5-chloro-6-methyl-1H-indazol-4-yl)oxy]-2-[2-(dimethylamino)ethoxy]quinazolin-4-yl}piperazin-1-yl)prop-2-en-1-one]"
> 30,13,,,"C=CC(=O)N1CCN(c2nc(NC3CNC(=O)C3)nc3c(Oc4c(C)ccc5[nH]ncc45)cccc23)CC1 (stereo not drawn) [Example 15F, 4-({4-(4-acryloylpiperazin-1-yl)-8-[(5-methyl-1H-indazol-4-yl)oxy]quinazolin-2-yl}amino)pyrrolidin-2-one]"
0.019,,80,,"C=CC(=O)N1CCN(c2nc(OCC3(F)CCN(C)CC3)nc3c(Oc4c(Cl)c(F)cc5[nH]ncc45)nc(Cl)cc23)CC1 [Example 15G, 1-(4-{6-chloro-8-[(5-chloro-6-fluoro-1H-indazol-4-yl)oxy]-2-[(4-fluoro-1-methylpiperidin-4-yl)methoxy]pyrido[3,4-d]pyrimidin-4-yl}piperazin-1-yl)prop-2-en-1-one]"
0.461,,25,54,"C=CC(=O)N1CCN(c2nc(OC[C@@]3(F)CCN(C)C3)nc3c(Oc4c(Cl)c(F)cc5[nH]ncc45)nccc23)CC1 [Example 15H, 1-[4-(8-[(5-chloro-6-fluoro-1H-indazol-4-yl)oxy]-2-{[(3R)-3-fluoro-1-methylpyrrolidin-3-yl]methoxy}pyrido[3,4-d]pyrimidin-4-yl)piperazin-1-yl]prop-2-en-1-one]"
0.126,,81,,"C=CC(=O)N1CCN(c2nc(OC[C@@]3(F)CCCN(C)C3)nc3c(Oc4c(Cl)c(F)cc5[nH]ncc45)nccc23)CC1 [Example 15I, 1-[4-(8-[(5-chloro-6-fluoro-1H-indazol-4-yl)oxy]-2-{[(3R)-3-fluoro-1-methyl-piperidin-3-yl]methoxy}pyrido [3,4-d]pyrimidin-4-yl)piperazin-1-yl]prop-2-en-1-one]"
29.6,7,,,"C=CC(=O)N1CCN(c2ncnc3c(Oc4c(F)c(C)c(F)c5[nH]ncc45)nccc23)CC1 [Example 16A, 1-(4-{8-[(5,7-difluoro-6-methyl-1H-indazol-4-yl)oxy]pyrido[3,4-d]pyrimidin-4-yl}piperazin-1-yl)prop-2-en-1-one]"
22.2,7,,,"C=CC(=O)N1CCN(c2ncnc3c(Oc4c(C)ccc5[nH]nc(Cl)c45)nccc23)CC1 [Example 16C, 1-(4-{8-[(3-chloro-5-methyl-1H-indazol-4-yl)oxy]pyrido[3,4-d]pyrimidin-4-yl}piperazin-1-yl)prop-2-en-1-one]"
0.413,,,11,"C=CC(=O)N1CCN(c2nc(OC[C@@H]3CCCN3C)nc3c(Oc4c(Cl)c(F)cc5[nH]ncc45)cccc23)CC1 [Example 16E, 1-[4-(8-[(5-chloro-6-fluoro-1H-indazol-4-yl)oxy]-2-{[(2S)-1-methylpyrrolidin-2-yl]methoxy}quinazolin-4-yl)piperazin-1-yl]prop-2-en-1-one]"
> 30,16,,,"C=CC(=O)N1CCN(c2nc(NCCc3nncn3C)nc3c(Oc4c(C)ccc5[nH]ncc45)cccc23)CC1 [Example 16F, 1-[4-(8-[(5-methyl-1H-indazol-4-yl)oxy]-2-{[2-(4-methyl-4H-1,2,4-triazol-3-yl)ethyl]amino}quinazolin-4-yl)piperazin-1-yl]prop-2-en-1-one]"
0.111,,,14,"C=CC(=O)N1CCN(c2nc(OC[C@@H]3C[C@@H](F)CN3C)nc3c(Oc4c(Cl)c(F)cc5[nH]ncc45)nc(Cl)cc23)CC1 [Example 16G, 1-[4-(6-chloro-8-[(5-chloro-6-fluoro-1H-indazol-4-yl)oxy]-2-{[(2S,4R)-4-fluoro-1-methylpyrrolidin-2-yl]methoxy}pyrido[3,4-d]pyrimidin-4-yl)piperazin-1-yl]prop-2-en-1-one]"
0.169,,57,,"C=CC(=O)N1CCN(c2nc(OC[C@@H]3C[C@@H](F)CN3C)nc3c(Oc4c(Cl)c(F)cc5[nH]ncc45)nccc23)CC1 [Example 16H, 1-[4-(8-[(5-chloro-6-fluoro-1H-indazol-4-yl)oxy]-2-{[(2S,4R)-4-fluoro-1-methylpyrrolidin-2-yl]methoxy}pyrido[3,4-d]pyrimidin-4-yl)piperazin-1-yl]prop-2-en-1-one]"
0.582,,48,,"C=CC(=O)N1CCN(c2nc(OC3CCN(C)CC3)nc3c(Oc4c(Cl)c(F)cc5[nH]ncc45)nccc23)CC1 [Example 16I, 1-(4-{8-[(5-chloro-6-fluoro-1H-indazol-4-yl)oxy]-2-[(1-methyl-piperidin-4-yl)oxy]pyrido [3,4-d]pyrimidin-4-yl}piperazin-1-yl)prop-2-en-1-one]"
24.1,9,,,"C=CC(=O)N1CCN(c2ncnc3c(Oc4c(C)ccc5[nH]nc(C)c45)nccc23)CC1 [Example 17A, 1-(4-{8-[(3,5-dimethyl-1H-indazol-4-yl)oxy]pyrido[3,4-d]pyrimidin-4-yl}piperazin-1-yl)prop-2-en-1-one]"
2.6,24,,,"C=CC(=O)N1CCN(c2ncnc3c(Oc4c(Cl)c(F)cc5[nH]ncc45)cccc23)C[C@H]1C [Example 17C, 1-[(2R)-4-{8-[(5-chloro-6-fluoro-1H-indazol-4-yl)oxy]quinazolin-4-yl}-2-methylpiperazin-1-yl]prop-2-en-1-one]"
0.197,83,76,80,"C=CC(=O)N1CCN(c2nc(OC[C@H]3CCCN3C)nc3c(Oc4c(Cl)c(F)cc5[nH]ncc45)nccc23)CC1 [Example 17E, 1-[4-(8-[(5-chloro-6-fluoro-1H-indazol-4-yl)oxy]-2-{[(2R)-1-methylpyrrolidin-2-yl]methoxy}pyrido[3,4-d]pyrimidin-4-yl)piperazin-1-yl]prop-2-en-1-one]"
4.59,60,,36,"C=CC(=O)N1CCN(c2nc(OCCNC(C)=O)nc3c(Oc4c(C)ccc5[nH]ncc45)cccc23)CC1 [Example 17F, N-[2-({4-(4-acryloylpiperazin-1-yl)-8-[(5-methyl-1H-indazol-4-yl)oxy]quinazolin-2-yl}oxy)ethyl]acetamide]"
